By IC50 is commonly meant the concentration that inhibits the measured activity by half.

In patent publication US20130030172A1, “Methods of Preparing Quinoline Derivatives” (Exelixis, Inc., priority 2008, published 2013) one finds IC50 data, which are given here for one molecule.

In one assay the target is c-Met (Homo sapiens, UniProt P08581). The assay can be described thus: c-Met kinase assay as described in WO 2005/030140 A2. Particulars: assays described in WO 2005/030140 A2. Format: biochemical. The text has this: (§1) Other utilities of this compound are further described in WO 2005/030140 A2.
The next assay deals with c-Kit (Homo sapiens, UniProt P10721). The assay can be described thus: c-Kit kinase assay as described in WO 2005/030140 A2. It is filed as biochemical. Particulars: assays described in WO 2005/030140 A2.
Source text: as §1

Chain of c-Met (P08581 25-1390): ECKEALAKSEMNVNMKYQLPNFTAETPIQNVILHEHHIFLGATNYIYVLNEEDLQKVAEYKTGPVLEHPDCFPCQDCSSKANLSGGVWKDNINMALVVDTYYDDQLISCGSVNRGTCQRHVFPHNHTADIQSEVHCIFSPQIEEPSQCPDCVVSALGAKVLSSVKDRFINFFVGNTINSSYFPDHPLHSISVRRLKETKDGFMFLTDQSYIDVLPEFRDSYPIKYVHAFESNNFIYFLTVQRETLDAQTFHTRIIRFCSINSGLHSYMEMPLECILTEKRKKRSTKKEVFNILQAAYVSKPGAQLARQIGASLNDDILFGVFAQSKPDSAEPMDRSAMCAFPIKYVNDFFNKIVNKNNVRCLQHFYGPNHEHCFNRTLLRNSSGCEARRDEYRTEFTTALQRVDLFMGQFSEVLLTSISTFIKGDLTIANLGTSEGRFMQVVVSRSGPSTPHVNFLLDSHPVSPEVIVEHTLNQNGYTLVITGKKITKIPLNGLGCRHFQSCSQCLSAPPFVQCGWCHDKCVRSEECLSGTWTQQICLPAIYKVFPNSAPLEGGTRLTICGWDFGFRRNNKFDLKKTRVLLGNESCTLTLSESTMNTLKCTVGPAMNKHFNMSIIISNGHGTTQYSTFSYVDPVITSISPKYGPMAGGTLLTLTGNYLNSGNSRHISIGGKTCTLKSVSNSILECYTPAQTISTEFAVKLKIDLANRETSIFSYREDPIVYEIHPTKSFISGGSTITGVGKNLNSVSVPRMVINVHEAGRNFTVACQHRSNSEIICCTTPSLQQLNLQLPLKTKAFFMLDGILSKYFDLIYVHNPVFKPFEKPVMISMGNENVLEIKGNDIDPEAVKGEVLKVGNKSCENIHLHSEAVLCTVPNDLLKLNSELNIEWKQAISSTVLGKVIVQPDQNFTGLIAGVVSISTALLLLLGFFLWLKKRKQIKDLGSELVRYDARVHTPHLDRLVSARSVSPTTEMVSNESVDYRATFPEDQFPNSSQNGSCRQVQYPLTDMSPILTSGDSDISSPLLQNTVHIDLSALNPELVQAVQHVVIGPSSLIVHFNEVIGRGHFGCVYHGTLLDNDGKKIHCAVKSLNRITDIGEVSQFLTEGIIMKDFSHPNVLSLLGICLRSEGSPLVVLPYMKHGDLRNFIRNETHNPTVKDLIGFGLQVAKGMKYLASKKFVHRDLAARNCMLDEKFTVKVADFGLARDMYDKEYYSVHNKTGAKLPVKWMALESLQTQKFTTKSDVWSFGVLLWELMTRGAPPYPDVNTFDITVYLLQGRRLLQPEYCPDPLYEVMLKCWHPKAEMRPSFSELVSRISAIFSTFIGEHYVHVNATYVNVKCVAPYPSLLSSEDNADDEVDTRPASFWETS
Chain of c-Kit (P10721 26-976): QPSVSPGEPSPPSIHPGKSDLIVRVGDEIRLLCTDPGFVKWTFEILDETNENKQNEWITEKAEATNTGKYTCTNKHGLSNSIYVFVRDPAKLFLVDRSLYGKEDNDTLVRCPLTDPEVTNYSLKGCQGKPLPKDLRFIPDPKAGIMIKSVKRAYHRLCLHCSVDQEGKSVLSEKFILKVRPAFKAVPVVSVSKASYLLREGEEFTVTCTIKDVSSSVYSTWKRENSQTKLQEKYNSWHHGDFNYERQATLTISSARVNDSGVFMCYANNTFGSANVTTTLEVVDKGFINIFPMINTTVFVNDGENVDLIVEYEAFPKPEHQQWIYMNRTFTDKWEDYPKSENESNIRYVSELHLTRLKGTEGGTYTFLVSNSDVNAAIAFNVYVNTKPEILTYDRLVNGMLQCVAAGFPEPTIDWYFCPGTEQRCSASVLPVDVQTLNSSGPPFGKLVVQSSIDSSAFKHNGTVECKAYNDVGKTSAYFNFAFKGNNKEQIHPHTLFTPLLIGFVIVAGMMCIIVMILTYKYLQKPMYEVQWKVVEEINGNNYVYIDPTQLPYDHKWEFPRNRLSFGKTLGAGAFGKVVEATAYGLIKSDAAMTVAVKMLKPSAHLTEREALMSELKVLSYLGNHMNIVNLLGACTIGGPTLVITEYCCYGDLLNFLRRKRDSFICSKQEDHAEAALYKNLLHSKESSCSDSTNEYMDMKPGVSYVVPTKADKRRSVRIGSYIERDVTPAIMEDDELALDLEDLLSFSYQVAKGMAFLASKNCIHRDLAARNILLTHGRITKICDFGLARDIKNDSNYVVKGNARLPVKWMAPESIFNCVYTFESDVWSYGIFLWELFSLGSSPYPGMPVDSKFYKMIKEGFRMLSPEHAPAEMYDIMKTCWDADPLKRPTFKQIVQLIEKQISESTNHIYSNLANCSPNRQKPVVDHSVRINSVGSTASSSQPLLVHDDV

For the molecule `COc1cc2c(Oc3ccc(NC(=O)C(=O)NCCc4ccccc4)cc3F)ccnc2cc1OCCCN1CCOCC1` [title compound, N-{3-Fluoro-4-[6-methoxy-7-(3-morpholin-4-yl-propoxy)-quinolin-4-yloxy]-phenyl}-N′-phenethyl-oxalamide], the 50% inhibitory concentration (IC50) at c-Met and at c-Kit was below 50 nM throughout.
